# Measured values: patent US20230255904A1, “PHARMACEUTICAL COMPOSITION FOR PREVENTING OR TREATING CANCER COMPRISING NAPHTHOQUINONE-BASED COMPOUND AND IMMUNE CHECKPOINT INHIBITOR AS ACTIVE INGREDIENTS” (NADIANBIO LTD., priority 2020, published 2023)
# Assays:
# [1] = tested on: LL/2; assay: Tumor growth inhibition, animal model for lung cancer II (LL/2); format: in vivo, C57BL/6 mice; settings: Experimental Example 31; LL/2 lung cancer II; dunnione 40 mg/kg oral daily from 6th day; anti-PD-1 antibody 100 μg/head, carboplatin 25 mg/kg + pemetrexed 100 mg/kg intraperitoneal 2 times a week, 3 times in total
# Procedure: (§1) All mice used in the experiments were raised in a sterile animal room with constant temperature (22° C. to 26° C.) and constant humidity (55% to 60%), acclimatized for 1 week while sufficiently supplying typical solid feed (Samtako Inc., Korea) and water, and then used. All experiments were conducted after obtaining approval from the Institutional Animal Care and Use Committee in accordance with the laboratory animal care and ethics regulations of the Institutional Animal Care and Use Committee of Wonkwang University.
# (§2) 7-week-old BALB/c or C57BL/6 mice were used, and subcutaneously inoculated using a 1-mL insulin syringe within 30 minutes after mixing the mouse cancer cells with 0.2 mL of PBS.
# (§3) After the cancer cell line was subcutaneously implanted, the administration of drugs was started when the size of the cancer reached 50 to 100 mm^3. The volumes (mm^3) of the tumors, which were generated after the inoculation, were measured at intervals of 3 days using a caliper, calculation was performed using the formula of […], and then the results thereof were compared. […]
# [2] = tested on: MC38; assay: Tumor growth inhibition, animal model for colorectal cancer I (MC38); format: in vivo, C57BL/6 mice
# Procedure: as §1, §2
# (§4) After the cancer cell line was subcutaneously implanted, the administration of drugs was started when the size of the cancer reached 50 to 100 mm^3. The volumes (mm^3) of the tumors, which were generated after the inoculation, were measured at intervals of 3 days using a caliper, calculation was performed using the formula of […], and then the results thereof were compared.
# (§5) In addition, sole administration or co-administration of respective drugs was performed according to the administration schedules listed in Tables 4 to 34 below, the tumor volumes were then measured according to the tumor proliferation assessment method described in Example 1.1, the tumor growth inhibition rates (TGI (O)=(Vc−Vt)/Vc×100(%); Vc: tumor volume of control, Vt tumor volume of experimental group) were calculated based the tumor volumes, and the results thereof are shown in the respective tables and FIGS. 1 to 31.
# [3] = tested on: B16F10; assay: Tumor growth inhibition, animal model for skin cancer (B16F10); format: in vivo,  mice
# Procedure: as §1, §2, §4, §5
# [4] = tested on: CT26; assay: Tumor growth inhibition, animal model for colorectal cancer II (CT26); format: in vivo,  mice; settings: Dunnione 40 mg/kg oral every day from 6th day, 4 times
# Procedure: as §1, §2, §3
# [5] = tested on: RENCA; assay: Tumor growth inhibition, animal model for renal cancer (RENCA); format: in vivo, BALB/c mice
# Procedure: as §1, §2, §4, §5
# [6] = tested on: 4T1-Luc; assay: Tumor metastasis analysis, photon emission amount after tumor resection (4T1-Luc); format: in vivo, BALB/c mice; settings: Experimental Example 32; 17th day after primary tumor removal; dunnione 40 mg/kg oral daily; anti-CTLA4 antibody 200 μg/head intraperitoneal at intervals of 3 days; mitoxantrone 6 mg/kg intraperitoneal once on 1st day
# Procedure: 4T1-Luc (2.5×10^6 cells) as a mouse breast cancer cell line overexpressing a luciferase was implanted into mammary fat pads of BALB/c mice, and the tumor was removed through surgical resection when the size of the cancer reached 150 to 200 mm^3. The administration of drugs was started from the day after the tumor removal procedure, and the degree of cancer metastasis was measured by measuring the photon emission amount at intervals of 1 week from the 3rd day after the tumor removal procedure.
# After sole administration or co-administration of respective drugs was performed according to the administration schedule listed in Table 35 below, the photon emission amount (fold) was measured on the 17th day according to the tumor metastasis assessment method described in Example 2.1, and the results thereof are shown in Table 35 and FIG. 32.
# [7] = tested on: Hepa1-6; assay: Tumor growth inhibition, animal model for liver cancer (Hepa1-6); format: in vivo, C57BL/6 mice; settings: Dunnione 40 mg/kg oral every day from 11th day, Anti-CTLA4 antibody 200 μg/head i.p. 2 times a week from 11th day
# Procedure: as §1, §2, §3
# [8] = tested on: 4T1; assay: Tumor growth inhibition, animal model for breast cancer I (4T1); format: in vivo, BALB/c mice
# Procedure: as §1, §2, §4, §5
# [9] = tested on: KLN205; assay: Tumor growth inhibition, animal model for lung cancer I (KLN205); format: in vivo, DBA/2 mice; settings: Experimental Example 30, dunnione 40 mg/kg oral daily from 5th day, anti-PD-1 antibody 100 μg/head, carboplatin 25 mg/kg + paclitaxel 10 mg/kg intraperitoneal 2 times a week, 4 times in total
# Procedure: as §1, §2, §3
# [10] = tested on: MC38; assay: Survival rate analysis, animal model for colorectal cancer I (MC38); format: in vivo, C57BL/6 mice
# Procedure: After subcutaneous implantation of the cancer cell line, the survival rate was measured by recording the number of mice that died in each group every day. The measurement of survival rate was performed until the death of all mice in all groups or the death of all mice in the control. The average survival day was calculated by obtaining a survival curve using the survival rate.
# After sole administration or co-administration of respective drugs was performed according to the administration schedules listed in Tables 36 and 37 below, the survival rates and the average survival days were calculated according to the survival rate analysis method described in Example 3.1, and the results thereof are respectively shown in Tables 36 and 37 and FIGS. 33 and 34.
# [11] = Experimental Example 34, dunnione 40 mg/kg oral daily from 6th day, anti-PD-1 antibody 200 μg/head intraperitoneal 2 times a week from 6th to 62nd day, 5-fluorouracil 50 mg/kg intraperitoneal once on 6th day
compound,measurement,setting,value
"CC1OC2=C(C(=O)C(=O)c3ccccc32)C1(C)C (stereo not drawn) [Dunnione, 2,3,3-trimethyl-2H-benzo[g][1]benzofuran-4,5-dione]",TGI (%),[1],23.5%
same,TGI (%),"[2]; Experimental Example 1, Dunnione 40 mg/kg oral every day from 5th day, Anti-PD-1 antibody 200 μg/head i.p. at intervals of 3 days from 5th day, 4 times, Oxaliplatin 6 mg/kg + 5-Fluorouracil 50 mg/kg i.p. once on 5th day",8.1%
same,TGI (%),"[2]; Experimental Example 2, Dunnione 40 mg/kg oral every day from 5th day, Anti-CTLA4 antibody 200 μg/head i.p. at intervals of 3 days from 5th day, 4 times, Oxaliplatin 6 mg/kg + 5-Fluorouracil 50 mg/kg i.p. once on 5th day",7.6%
same,TGI (%),"[2]; Experimental Example 3, Dunnione 40 mg/kg oral every day from 4th day, Anti-PD-1 antibody 100 ug/head + Anti-CTLA4 antibody 100 μg/head i.p. at intervals of 3 days from 4th day, 4 times, Oxaliplatin 6 mg/kg + 5-Fluorouracil 50 mg/kg i.p. once on 4th day",5.3%
same,TGI (%),"[2]; Experimental Example 4, Dunnione 40 mg/kg oral every day from 7th day, Anti-LAG3 antibody 200 μg/head i.p. on 7th, 10th, 14th, 17th days, Oxaliplatin 6 mg/kg i.p. on 7th and 14th days",13.1%
same,TGI (%),"[2]; Experimental Example 5, Dunnione 40 mg/kg oral every day from day of cancer cell implantation, Anti-PD-1 antibody 200 μg/head i.p. at intervals of 3 days from 7th day, 4 times",28.5%
same,TGI (%),"[2]; Experimental Example 6, Dunnione 40 mg/kg oral every day from 7th day, Anti-PD-1 antibody 100 μg/head i.p. 2 times a week from 7th day, 4 times, Regorafenib 10 mg/kg oral every day from 7th day",36.8%
same,TGI (%),"[2]; Experimental Example 7, Dunnione 40 mg/kg oral every day from 6th day, Anti-PD-1 antibody 100 μg/head i.p. 2 times a week from 6th day, 2 times, Abemaciclib 75 mg/kg oral every day from 6th day",9.9%
same,TGI (%),"[3]; Experimental Example 21, Dunnione 40 mg/kg oral every day from 6th day, Anti-PD-L1 antibody 200 μg/head i.p. 2 times a week from 6th day, 3 times",24.1%
same,TGI (%),"[3]; Experimental Example 22, Dunnione 40 mg/kg oral every day from 6th day, Anti-PD-L1 antibody 200 μg/head i.p. 2 times a week from 6th day, 3 times, Paclitaxel 14 mg/kg i.p. at intervals of 1 week from 6th day, 2 times",24.1%
same,TGI (%),"[3]; Experimental Example 23, Dunnione 40 mg/kg oral every day from 6th day, Anti-CTLA4 antibody 200 μg/head i.p. 2 times a week from 6th day, 4 times, Paclitaxel 14 mg/kg i.p. once on 6th day",16.7%
same,TGI (%),"[3]; Experimental Example 24, Dunnione 40 mg/kg oral every day from 7th day, Anti-CTLA4 antibody 100 μg/head i.p. 2 times a week from 7th day, 2 times, Regorafenib 3 mg/kg oral every day from 7th day",9.2%
same,TGI (%),"[3]; Experimental Example 25, Dunnione 40 mg/kg oral every day from 8th day, Anti-PD-1 antibody 100 μg/head i.p. 2 times a week from 8th day, 3 times, Vistusertib 15 mg/kg oral every day from 8th day",34.6%
same,TGI (%),"[3]; Experimental Example 26, Dunnione 40 mg/kg oral every day from 8th day, Everolimus 0.5 mg/kg oral every day from 8th day",31.5%
same,TGI (%),"[3]; Experimental Example 27, Dunnione 40 mg/kg oral every day from 8th day, Anti-PD-1 antibody 100 μg/head i.p. 2 times a week from 8th day, 3 times, Everolimus 0.5 mg/kg oral every day from 8th day",34.6%
same,TGI (%),"[4]; Experimental Example 8, Irinotecan 4.626 mg/kg + Leucovorin 10.28 mg/kg + 5-Fluorouracil 61.68 mg/kg i.p. 2 times a week from 6th day",21.2%
same,TGI (%),"[4]; Experimental Example 9, Anti-PD-1 antibody 200 μg/head i.p. 2 times a week from 6th day",25.5%
same,TGI (%),"[5]; Experimental Example 15, Dunnione 40 mg/kg oral every day from 7th day, Anti-CTLA4 antibody 200 μg/head i.p. at intervals of 3 days from 7th day, 7 times, Everolimus 250 μg/kg oral every day from 7th day",7.8%
same,TGI (%),"[5]; Experimental Example 16, Dunnione 40 mg/kg oral every day from 7th day, Sorafenib 10 mg/kg oral every day from 7th day",14.5%
same,TGI (%),"[5]; Experimental Example 17, Dunnione 40 mg/kg oral every day from 7th day, Anti-CTLA4 antibody 200 μg/head i.p. at intervals of 3 days from 7th day, 3 times, Sorafenib 10 mg/kg oral every day from 7th day",14.5%
same,TGI (%),"[5]; Experimental Example 18, Dunnione 40 mg/kg oral every day from 7th day, Anti-PD-1 antibody 100 μg/head i.p. 2 times a week from 7th day, 5 times, Everolimus 0.1 mg/kg oral every day from 7th day",5.2%
same,TGI (%),"[5]; Experimental Example 19, Dunnione 40 mg/kg oral every day from 7th day, Anti-CTLA4 antibody 200 μg/head i.p. 2 times a week from 7th day, 5 times, Sorafenib 10 mg/kg oral every day from 7th day",44.6%
same,TGI (%),"[5]; Experimental Example 20, Dunnione 40 mg/kg oral every day from 10th day, Anti-CTLA4 antibody 200 μg/head i.p. 2 times a week from 10th day, 5 times, Vistusertib 10 mg/kg oral every day from 10th day",33.2%
same,Photon emission amount,[6],2805.3 ± 2352.3 fold
same,TGI (%),"[7]; Experimental Example 28, 4 times, Sorafenib 10 mg/kg oral every day from 11th day",29.1%
same,TGI (%),"[7]; Experimental Example 29, 3 times, Everolimus 1 mg/kg oral every day from 11th day",22.4%
same,TGI (%),"[8]; Experimental Example 10, Dunnione 40 mg/kg oral every day from 5th day, Anti-CTLA4 antibody 200 μg/head i.p. at intervals of 3 days from 5th day, 4 times, Mitoxantrone 6 mg/kg i.p. once on 5th day",8.9%
same,TGI (%),"[8]; Experimental Example 12, Dunnione 40 mg/kg oral every day from 7th day, Adriamycin 3.08 mg/kg + Cyclophosphamide 30.8 mg/kg + Paclitaxel 4.12 mg/kg i.p. at intervals of 1 week from 7th day, 3 times",23.6%
same,TGI (%),"[8]; Experimental Example 13, Dunnione 40 mg/kg oral every day from 7th day, Docetaxel 4.06 mg/kg + Adriamycin 2.7 mg/kg + Cyclophosphamide 27 mg/kg i.p. at intervals of 1 week from 7th day, 4 times",16.1%
same,TGI (%),[9],10.2%
same,Survival rate (%) on 38th day after cancer implantation,"[10]; Experimental Example 33, dunnione 40 mg/kg oral daily from 4th day, anti-PD-1 antibody 100 μg/head + anti-CTLA4 antibody 100 μg/head intraperitoneal, oxaliplatin 6 mg/kg + 5-fluorouracil 50 mg/kg intraperitoneal at intervals of 15 days, 3 times",10%
same,Average survival day,[10]; [11],28 days
same,Total survival period,[10]; [11],22 to 45
